# In patent US20110097274A1, “Carbon-11 and fluorine-18 labeled radioligands for positron emission tomography (PET) imaging for the brain serotonin transporters” (priority 2002, published 2011):
# Values joined by “and” are separate entries in the source; they are usually repeats but may differ in a detail not shown here. Equal entries are not always repeated.
# How the values were obtained:
# [1] = Experiment 4: plasma analysis, [^11C]AFM and [^18F]AFM in the same baboon
# Protocol: The animal was then injected with [^18F]AFM (2.60 mCi, 425 Ci/mmol, 1.51 μg) and scanned for 90 minutes. […] Arterial activity was corrected for parent fraction to form the input function.
# [2] = Experiment 5: plasma clearance of ^11C and ^18F labeled AFM, AFA, AFE in one baboon; format: in vivo; settings: one adult male baboon, n = 1 to 4 scans
# Protocol: (§1) General scanning methods were as described in Huang et al. (2002). Arterial input function was measured and corrected for metabolites.
# SERT [3] = settings: same baboon, one tissue compartment model
# Protocol: The animal was then injected with [^18F]AFM (2.60 mCi, 425 Ci/mmol, 1.51 μg) and scanned for 90 minutes. Analysis of the input function and brain uptake was performed as described in the previous section. […] Arterial activity was corrected for parent fraction to form the input function.
# Data were analyzed with a one tissue compartment model.
# SERT [4] = experiment: Experiment 5: PET brain imaging of ^11C and ^18F labeled AFM, AFA, AFE in one baboon; format: in vivo; settings: one adult male baboon, n = 1 to 4 scans, two-compartment model
# Protocol: as §1
# Activity distributed in the brain in accordance to the known density distribution pattern of SERT (Laruelle et al., 1988). […] Data were analyzed with a two-compartment model, using the metabolite-corrected arterial time-activity curve as input function. This analysis provided the regional distribution volumes (VT, mL/g).
# The nonspecific distribution volume, measured as the distribution volume of the cerebellum (a region with negligible SERT density) was in a similar range for all tracers (10 to 30 mL/g, Table 16).
# The specific to nonspecific partition coefficient, V3″, was calculated as the ratio of VT in the region of interest (ROI) to cerebellum VT minus one. V3″ provides a measure related to receptor parameters as follows: […]
# [5] = Biodistribution of labeled radioligands in male Sprague-Dawley rats; format: in vivo; settings: mean ± SD, n = 3
# Source text: Appropriately labeled compounds were studied in animals to assess their binding characteristics in the brain. Procedures for these biodistribution studies are as follows. […] The brain regions (cerebellum, hippocampus, striatum, frontal cortex, thalamus and hypothalamus), along with samples of blood and part of the tail, were removed, weighed, and counted in a Packard Cobra II gamma counter. The percent injected dose (% ID) of the decay- and tail-corrected activity in the brain regions and blood were calculated based upon C-11 standards prepared from the injection solution, and the % ID/g were calculated using the tissue weights.
# SERT [6] = settings: literature; cited from earlier work
# SERT [7] = target: T1, SERT (Homo sapiens, UniProt P31645); settings: cited from earlier work
# T1 construct: consistent with values previously measured in six healthy humans (Parsey et al., 2000); host or cells: living human brain (PET, values quoted from Parsey et al. 2000, Ginovart et al. 2001)
# T1 sequence (P31645 whole entry): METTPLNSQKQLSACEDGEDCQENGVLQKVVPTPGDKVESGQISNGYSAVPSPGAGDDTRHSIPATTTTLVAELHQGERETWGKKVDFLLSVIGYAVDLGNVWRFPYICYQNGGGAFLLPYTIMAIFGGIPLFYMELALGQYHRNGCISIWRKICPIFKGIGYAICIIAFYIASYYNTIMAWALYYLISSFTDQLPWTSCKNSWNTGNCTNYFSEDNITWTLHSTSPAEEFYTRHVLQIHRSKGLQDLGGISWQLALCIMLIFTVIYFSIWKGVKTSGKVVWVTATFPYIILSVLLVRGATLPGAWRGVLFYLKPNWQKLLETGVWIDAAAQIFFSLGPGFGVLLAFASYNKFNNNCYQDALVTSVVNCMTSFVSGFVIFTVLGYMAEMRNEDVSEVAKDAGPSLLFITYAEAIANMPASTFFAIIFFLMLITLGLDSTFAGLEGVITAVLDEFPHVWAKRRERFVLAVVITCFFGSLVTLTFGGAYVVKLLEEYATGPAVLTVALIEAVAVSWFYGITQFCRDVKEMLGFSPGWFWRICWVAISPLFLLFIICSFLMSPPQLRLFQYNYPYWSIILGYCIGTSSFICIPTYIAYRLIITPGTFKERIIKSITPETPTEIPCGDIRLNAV
# [8] = humans, cited from earlier work; for Parent fraction in plasma at 30 minutes: literature
smiles,measurement,setting,value
"CN([11CH3])Cc1ccccc1Sc1ccc(CF)cc1N [[^11C]AFM, [^11C]2-[2-(Dimethylaminomethyl)phenylthio]-5-fluoromethylphenylamine]",Clearance of the parent compound,[1],31 L/h
same,Percent plasma activity corresponding to the parent compound,[1]; 2 minutes,75.6%
same,Percent plasma activity corresponding to the parent compound,[1]; 4 minutes,55.4%
same,Percent plasma activity corresponding to the parent compound,[1]; 12 minutes,21.4%
same,Percent plasma activity corresponding to the parent compound,[1]; 30 minutes,9.4%
same,Percent plasma activity corresponding to the parent compound,[1]; 60 minutes,6.4%
same,Percent plasma activity corresponding to the parent compound,[1]; 90 minutes,6.7%
same,Clearance,[2],47 ± 11 L/h
same,Thalamus V3″,SERT [3],2.26
same,Cerebellum V (nonspecific distribution volume),SERT [4],32 ± 6 mL/g
same,% ID/g Blood,[5]; 10 min post-injection,0.37 ± 0.28 % ID/g
same,% ID/g Cerebellum,[5]; 10 min post-injection,0.40 ± 0.06 % ID/g
same,% ID/g Frontal Ctx.,[5]; 10 min post-injection,0.99 ± 0.25 % ID/g
same,% ID/g Hippocamp.,[5]; 10 min post-injection,0.59 ± 0.14 % ID/g
same,% ID/g Hypothal.,[5]; 10 min post-injection,0.75 ± 0.19 % ID/g
same,% ID/g Striatum,[5]; 10 min post-injection,0.72 ± 0.17 % ID/g
same,% ID/g Thalamus,[5]; 10 min post-injection,0.79 ± 0.15 % ID/g
same,% ID/g Blood,[5]; 30 min post-injection,0.28 ± 0.01 % ID/g
same,% ID/g Cerebellum,[5]; 30 min post-injection,0.41 ± 0.11 % ID/g
same,% ID/g Frontal Ctx.,[5]; 30 min post-injection,1.31 ± 0.28 % ID/g
same,% ID/g Hippocamp.,[5]; 30 min post-injection,0.95 ± 0.29 % ID/g
same,% ID/g Hypothal.,[5]; 30 min post-injection,1.37 ± 0.48 % ID/g
same,% ID/g Striatum,[5]; 30 min post-injection,1.12 ± 0.21 % ID/g
same,% ID/g Thalamus,[5]; 30 min post-injection,1.18 ± 0.30 % ID/g
same,% ID/g Blood,[5]; 60 min post-injection,0.19 ± 0.03 % ID/g
same,% ID/g Cerebellum,[5]; 60 min post-injection,0.21 ± 0.04 % ID/g
same,% ID/g Frontal Ctx.,[5]; 60 min post-injection,1.37 ± 0.10 % ID/g
same,% ID/g Hippocamp.,[5]; 60 min post-injection,0.84 ± 0.10 % ID/g
same,% ID/g Hypothal.,[5]; 60 min post-injection,1.27 ± 0.16 % ID/g
same,% ID/g Striatum,[5]; 60 min post-injection,1.02 ± 0.15 % ID/g
same,% ID/g Thalamus,[5]; 60 min post-injection,1.29 ± 0.22 % ID/g
CN(C)Cc1ccccc1Sc1ccc(C#N)cc1N [[^11C]DASB],Kd,SERT [6],1.1 nM
same,Data acquisition required to derive stable VT values in all regions,"SERT [7]; humans (Ginovart et al., 2001)",no more than 80 minutes
same,V3″ occipital cortex,"SERT [7]; humans, literature",0.51±0.09
same,VT CER (cerebellum distribution volume),"SERT [7]; humans, literature",11.8 ± 1.5 mL/g
same,Parent fraction in plasma at 30 minutes,[8],40±7%
same,f1 (plasma free fraction),"[8]; n=5 (Ginovart et al., 2001)",11.0±1.2%
[11CH3]Sc1ccc([C@H]2CN3CCC[C@H]3c3ccccc32)cc1 [[^11C]McN 5652],V3″ medial prefrontal cortex,"SERT [7]; humans (Parsey et al., 2000)",0.08
same,V3″ cingulate cortex,"SERT [7]; humans, literature",0.21
same,V3″ hippocampus,"SERT [7]; humans, literature",0.49
same,V3″ midbrain,"SERT [7]; humans, literature",1.63
same,V3″ occipital cortex,"SERT [7]; humans, literature",0.17
same,V3″ striatum,"SERT [7]; humans, literature",1.03
same,V3″ temporal cortex,"SERT [7]; humans, literature",0.22
same,V3″ thalamus,"SERT [7]; humans, literature",0.92
same,VT CER (cerebellum distribution volume),"SERT [7]; humans, literature",17.8 ± 1.9 mL/g and 11.9 ± 3.3 mL/g
same,Data acquisition required for time-independent / stable VT or BP estimates,"SERT [7]; humans, regions with high SERT density such as the midbrain (Parsey et al., 2000)",at least 120 minutes
same,Parent fraction in plasma at 30 minutes,[8],59±10%
